According to patent publication US6395738B1, “Benzofuran derivatives” (Kyowa Hakko Kogyo Co., Ltd., priority 1997, dated 2002):

Tests used:
[1] = molecular target: T1, Recombinant Human PDE IV Enzyme (HSPDE4A) (Homo sapiens, UniProt P27815); test: Inhibition test on recombinant human PDE IV enzyme; assay type: biochemical; details: [3H]cAMP substrate
T1 construct: except that 223 amino acids have been deleted from the N-terminal thereof; made in house; host or cells: E. coli
Description: Inhibition Test on Recombinant Human PDE IV Enzyme
Human phosphodiesterase cDNA (HSPDE4A) was isolated from testicles. Its predicted amino acid sequence is identical with the sequence (HSPDE4A5) reported by Bolger, G. et al. (Mol. Cell. Biol., 6558 (1993)) except that 223 amino acids have been deleted from the N-terminal thereof. This recombinant protein was expressed by an E. coli expression plasmid and then purified. The PDE activity was measured in the following 2-step process according to the method of Kincaid, R. and Manganiello, V. [Method. Enzymol., 159, 457 (1988)]. The substrate used was [^3H]cAMP (final concentration: […]), and the reaction was performed in a standard mixture containing N,N-bis(2-hydroxyethyl)-2-aminoethanesulfonic acid (50 mmol/l, pH 7.2), MgCl2 (1 mmol/l) and soybean trypsin inhibitor (0.1 mg/ml). The reaction was initiated by adding the enzyme thereto, and the mixture was incubated at 30° C. for 10 to 30 minutes. The reaction was quenched by hydrochloric acid, and the formed 5′-AMP was completely decomposed with […]. This sample was subjected to chromatography on DEAE-Sephadex A-25, and the eluted [^3H]adenosine was counted with a scintillation counter. The test compound was added after dissolved (concentration: 1.7%) in DMSO.

TNF α = test: Inhibitory activity on production of TNF α in mouse model with LPS-induced sepsis; assay type: in vivo, BALB/c male mice; details: Dose (mg) 30; orally administered 90 minutes before LPS i.v.; serum TNF α by ELISA 1 hour after LPS
[2] = concentration of test compound 10^−7 mol/L
[3] = concentration of test compound 10^−8 mol/L

T1 sequence (P27815 224-886 limits assumed): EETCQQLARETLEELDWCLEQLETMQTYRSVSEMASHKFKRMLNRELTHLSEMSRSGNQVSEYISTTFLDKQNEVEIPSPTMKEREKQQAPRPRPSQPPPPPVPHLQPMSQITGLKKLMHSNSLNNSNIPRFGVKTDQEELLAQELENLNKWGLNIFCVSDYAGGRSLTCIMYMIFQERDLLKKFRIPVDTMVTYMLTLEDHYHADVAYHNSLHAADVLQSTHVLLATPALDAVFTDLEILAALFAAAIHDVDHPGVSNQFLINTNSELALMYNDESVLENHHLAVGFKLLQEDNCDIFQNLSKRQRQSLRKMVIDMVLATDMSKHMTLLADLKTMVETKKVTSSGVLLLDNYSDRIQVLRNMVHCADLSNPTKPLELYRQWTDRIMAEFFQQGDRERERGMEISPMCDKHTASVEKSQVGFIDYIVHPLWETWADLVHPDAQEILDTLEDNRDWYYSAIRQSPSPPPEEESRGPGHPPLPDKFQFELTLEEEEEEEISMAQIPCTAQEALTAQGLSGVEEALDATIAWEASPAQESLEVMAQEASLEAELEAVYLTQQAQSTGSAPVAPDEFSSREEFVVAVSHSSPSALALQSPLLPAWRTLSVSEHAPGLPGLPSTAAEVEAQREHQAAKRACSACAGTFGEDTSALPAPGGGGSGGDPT

| SMILES | melting point [°C] | Ratio of inhibition (%) [1, 2] [%] | Ratio of inhibition (%) [1, 3] [%] | Ratio of inhibition (%) of TNF α production (TNF α) [%] |
| --- | --- | --- | --- | --- |
| COc1ccc(CCc2c(Cl)cncc2Cl)c2cc(C(=O)N3CCN(C)CC3)oc12.O=C(O)/C=C/C(=O)O | 186 to 187 | – | – | – |
| COc1ccc(CCc2c(Cl)cncc2Cl)c2cc(C(=O)N3CCN(CCO)CC3)oc12.O=C(O)/C=C/C(=O)O | 184 to 185 | – | – | – |
| CCN1CCN(C(=O)c2cc3c(C(=O)Nc4c(Cl)cncc4Cl)ccc(OC)c3o2)CC1.O=C(O)/C=C/C(=O)O [Compound 3, 4-(3,5-Dichloro-4-pyridyl)carbamoyl-2-(4-ethyl-1-piperazinyl)carbonyl-7-methoxybenzofuran monofumarate] | 202 to 204 | 71 | 20 | 50 |
| COC(=O)c1ccc(C(=O)Nc2c(Cl)cncc2Cl)c2cc(N3CCN(C(C)CO)CC3)oc12 (centres unmarked) [Compound 4, 4-(3,5-Dichloro-4-pyridyl)carbamoyl-2-[4-(1-hydroxy-2-propyl)-1-piperazinyl]-7-methoxycarbonylbenzofuran] | 148 to 150 | 85 | 28 | – |
| CCC(CO)N1CCN(C(=O)c2cc3c(C(=O)Nc4c(Cl)cncc4Cl)ccc(OC)c3o2)CC1 (centres unmarked) [Compound 5, 4-(3,5-Dichloro-4-pyridyl)carbamoyl-2-[4-(1-hydroxy-2-butyl)-1-piperazinyl]carbonyl-7-methoxybenzofuran] | 192 to 194 | 89 | 41 | 53 |
| COc1ccc(C(=O)Nc2c(Cl)cncc2Cl)c2cc(C(=O)N3CCN(CCCO)CC3)oc12 [Compound 6, 4-(3,5-Dichloro-4-pyridyl)carbamoyl-2-(4-hydroxypropyl-1-piperazinyl)carbonyl-7-methoxybenzofuran] | 180 to 182 | 81 | 24 | 33 |
| COc1ccc(C(=O)Nc2c(Cl)cncc2Cl)c2cc(C(=O)N3CCN(CCCCO)CC3)oc12 [Compound 7, 4-(3,5-Dichloro-4-pyridyl)carbamoyl-2-(4-hydroxybutyl-1-piperazinyl)carbonyl-7-methoxybenzofuran] | – | 83 | 35 | – |
| COc1ccc(C(=O)Nc2c(Cl)cncc2Cl)c2cc(C(=O)N3CCN(CCOCCO)CC3)oc12 [Compound 9, 4-(3,5-Dichloro-4-pyridyl)carbamoyl-2-{4-[2-(2-hydroxyethoxy)ethyl]-1-piperazinyl}carbonyl-7-methoxybenzofuran] | 132 to 133 | 78 | 29 | – |
| COc1ccc(C(=O)Nc2c(Cl)cncc2Cl)c2cc(C(=O)N3CC(C)N(C)C(C)C3)oc12 (centres unmarked) [Compound 10, 4-(3,5-Dichloro-4-pyridyl)carbamoyl-7-methoxy-2-(3,4,5-trimethyl-1-piperazinyl)carbonylbenzofuran] | 234 to 236 | 75 | 9 | 46 |
| COc1ccc(C(=O)Nc2c(Cl)cncc2Cl)c2cc(C(=O)N3CC(C)N(CCO)C(C)C3)oc12 (centres unmarked) [Compound 11, 4-(3,5-Dichloro-4-pyridyl)carbamoyl-2-(3,5-dimethyl-4-hydroxyethyl-7-methoxy-1-piperazinyl)carbonylbenzofuran] | – | 88 | 48 | – |
| COc1ccc(C(=O)Nc2c(Cl)cncc2Cl)c2cc(C(=O)N3CCNCC3)oc12 [Compound 12, 4-(3,5-Dichloro-4-pyridyl)carbamoyl-7-methoxy-2-(1-piperazinyl)carbonylbenzofuran] | – | – | – | 27 |
| CCN1CCN(c2cc3c(C(=O)Cc4c(Cl)cncc4Cl)ccc(C(=O)OC)c3o2)CC1.O=C(O)/C=C/C(=O)O [Compound 15, 4-[2-(3,5-Dichloro-4-pyridyl)-1-oxoethyl]-2-(4-ethyl-1-piperazinyl)-7-methoxycarbonylbenzofuran Monofumarate] | 196 to 198 | – | – | 61 |
| COc1ccc(C(=O)Cc2c(Cl)cncc2Cl)c2cc(C(=O)N3CCN(C(C)C)CC3)oc12.O=C(O)/C=C/C(=O)O [Compound 16, 4-[2-(3,5-Dichloro-4-pyridyl)-1-oxoethyl]-2-(4-isopropyl-1-piperazinyl)carbonyl-7-methoxybenzofuran Monofumarate] | 195 to 196 | – | – | 67 |
| CCOCCN1CCN(C(=O)c2cc3c(C(=O)Cc4c(Cl)cncc4Cl)ccc(OC)c3o2)CC1.O=C(O)/C=C/C(=O)O [Compound 17, 4-[2-(3,5-Dichloro-4-pyridyl)-1-oxoethyl]-2-(4-ethoxyethyl-1-piperazinyl)carbonyl-7-methoxybenzofuran Monofumarate] | 184 to 185 | – | – | 62 |
| COc1ccc(C(=O)Cc2c(Cl)cncc2Cl)c2cc(C(=O)N3CCN(C(C)CO)CC3)oc12 (centres unmarked) [Compound 18, 4-[2-(3,5-Dichloro-4-pyridyl)-1-oxoethyl]-2-[4-(1-hydroxy-2-propyl)-1-piperazinyl]carbonyl-7-methoxybenzofuran] | 187 to 189 | – | – | 66 |
| CCC(CO)N1CCN(C(=O)c2cc3c(C(=O)Cc4c(Cl)cncc4Cl)ccc(OC)c3o2)CC1 (centres unmarked) [Compound 19, 4-[2-(3,5-Dichloro-4-pyridyl)-1-oxoethyl]-2-[4-(1-hydroxy-2-butyl)-1-piperazinyl]carbonyl-7-methoxybenzofuran] | 150 to 152 | – | – | 68 |
| COc1ccc(C(=O)Cc2c(Cl)cncc2Cl)c2cc(C(=O)N3CCN(CCCO)CC3)oc12 [Compound 20, 4-[2-(3,5-Dichloro-4-pyridyl)-1-oxoethyl]-2-[4-(3-hydroxypropyl)-1-piperazinyl]carbonyl-7-methoxybenzofuran] | 162 to 163 | – | – | 40 |
| COc1ccc(C(=O)Cc2c(Cl)cncc2Cl)c2cc(C(=O)N3CCN(CCCCO)CC3)oc12 [Compound 21, 4-[2-(3,5-Dichloro-4-pyridyl)-1-oxoethyl]-2-[4-(4-hydroxybutyl)-1-piperazinyl]carbonyl-7-methoxybenzofuran] | 120 to 121 | – | – | 28 |
| COc1ccc(C(=O)Cc2c(Cl)cncc2Cl)c2cc(C(=O)N3CCN(C(CO)CO)CC3)oc12 [Compound 22, 4-[2-(3,5-Dichloro-4-pyridyl)-1-oxoethyl]-2-[4-(1,3-dihydroxy-2-propyl)-1-piperazinyl]carbonyl-7-methoxybenzofuran] | 213 to 215 | – | – | 52 |
| COc1ccc(C(=O)Cc2c(Cl)cncc2Cl)c2cc(C(=O)N3CCN(CCOCCO)CC3)oc12 [Compound 23, 4-[2-(3,5-Dichloro-4-pyridyl)-1-oxoethyl]-2-{4-[2-(2-hydroxyethoxy)ethyl]-1-piperazinyl}carbonyl-7-methoxybenzofuran] | 132 to 133 | – | – | – |
| COc1ccc(C(=O)Cc2c(Cl)cncc2Cl)c2cc(C(=O)N3CCNCC3)oc12.Cl [Compound 24, 4-[2-(3,5-Dichloro-4-pyridyl)-1-oxoethyl]-2-(1-piperazinyl)carbonyl-7-methoxybenzofuran Monohydrochloride] | – | – | – | 47 |
| COc1ccc(C(=O)Cc2c(Cl)cncc2Cl)c2cc(C(=O)N3CC(C)N(C)C(C)C3)oc12 (centres unmarked) [Compound 25, 4-[2-(3,5-Dichloro-4-pyridyl)-1-oxoethyl]-7-methoxy-2-(3,4,5-trimethyl-1-piperazinyl)carbonylbenzofuran] | 173 to 174 | – | – | 53 |
| COc1ccc(C(=O)Cc2c(Cl)cncc2Cl)c2cc(C(=O)N3CC(C)N(CCO)C(C)C3)oc12 (centres unmarked) [Compound 26, 4-[2-(3,5-Dichloro-4-pyridyl)-1-oxoethyl]-2-(3,5-dimethyl-4-hydroxyethyl-1-piperazinyl)carbonyl-7-methoxybenzofuran] | 187 to 188 | – | – | – |
